PubChem BioAssay AID434955 (Southern Research Specialized Biocontainment Screening …, 2010)

test system: M. tuberculosis H37Rv growth with meropenem, percent inhibition; assay: beta-lactam sensitization of Mtb H37Rv, H37Rv (AID 434955)

| Structure (SMILES) | IC90 |
| --- | --- |
| CCCCN(C)Cc1cc(=O)oc2cc3c(cc12)CCCC3 | 82.2 µM |
| O=C1Nc2c(ccc(Cl)c2Cl)C(=O)C1(F)c1ccccc1 (stereo unspecified) | 71.7 µM |
| c1ccc(-c2cc(N3CCOCC3)nc3ccccc23)cc1 | 91.5 µM |
| C/C(CC(=O)NCc1ccco1)=N\NC(=O)CC#N | 17.6 µM |
| CCN(CC(=O)Nc1ccc2c(c1)OCCO2)C(=O)c1ccc([N+](=O)[O-])s1 | 26 µM |
| Cc1ccc(C(=O)N/C(=C\c2ccc(-c3ccc(Cl)cc3)o2)C(=O)NCCCN(C)C)cc1 | 23.7 µM |
| CCNc1nc(CN2CCCCC2)nc2scc(-c3ccccc3)c12 | 57.3 µM |
| CCOC(=O)CSc1nnc(CNC(=O)c2cccs2)n1CCc1ccccc1 | 49.5 µM |
| COc1cc(NC(=O)c2ccccc2)c(OC)cc1NC(=O)CN1CCOCC1 | 69.2 µM |
| O=C(CN1C(=O)c2cccc([N+](=O)[O-])c2C1=O)N1CCN(c2ccc(F)cc2)CC1 | 74.5 µM |
| CSc1ccc(/C=C/C(=O)NC23CC4CC(CC(C4)C2)C3)cc1 | 16.1 µM |
| COc1cccc(/C=N/NC(=O)NC23CC4CC(CC(C4)C2)C3)c1O | 26.8 µM |
| CN(C)CCCN(C(=O)/C=C/c1cccs1)c1nc2ccc(F)cc2s1 | 48.4 µM |
| O=c1c2cc(Cl)ccc2[nH]c(=S)n1Cc1cccs1 | 13.2 µM |
| C/C(=N\NC(=S)Nc1ccccc1C)c1ccc(O)cc1 | 7.97 µM |
| COc1cc(NC(=O)c2cccc(Cl)c2)c(OC)cc1NC(=O)CN1CCCCC1 | 75.5 µM |
| COc1cccc(/C=C/c2[nH]c(=O)[nH]c(=O)c2[N+](=O)[O-])c1O | 15.9 µM |
| Cc1nn(-c2ccccc2)c(N2CCCC2)c1/C=C1\N=C(c2ccc(F)cc2)OC1=O | 22.9 µM |
| COCCCn1c(=O)/c(=C\c2ccccc2OC(C)C)s/c1=C(/C#N)C(=O)Nc1ccc(C(=O)O)cc1 | 18.5 µM |
| O=C(Cn1cnc2sc3c(c2c1=O)CCCC3)NCC(=O)Nc1ccccc1F | 95.5 µM |
| CCCn1nnnc1NC(=O)COc1ccc(Cl)cc1C | 42.9 µM |
| CC1CCCN(C(=O)C2CCN(c3ncnc4c3nc3n4CCCCC3)CC2)C1 (stereo unspecified) | 49.7 µM |
| Cc1ccc(C(=O)Nc2c(C)cc(C)c3cccnc23)cc1 | 10.5 µM |

| Structure (SMILES) | IC90 |
| --- | --- |
| CCCc1cc(NC(=O)COC(=O)c2nccnc2N)n(-c2ccccc2)n1 | 50.8 µM |
| O=[N+]([O-])c1cc(C(F)(F)F)ccc1NCCc1c[nH]c2ccc(O)cc12 | 72.9 µM |
| S=C(NNc1ccc2ccccc2c1)NC1CCCCC1 | 41.3 µM |
| c1ccc(-c2n[nH]c3c2CCC3)cc1 | 46.3 µM |
| Cc1cc(C)cc(NC(=O)c2cc(Cl)sc2Cl)c1 | 7.73 µM |
| COc1cc(OC)cc(-c2cc3ccc(OC)cc3cn2)c1 | 76.9 µM |
| O=C1/C(=C/c2ccncc2)CCc2ccccc21 | 29.1 µM |
| CCNC(=S)N/N=C1\C(=O)c2cccc3cccc1c23 | 7.61 µM |
| CCC(CC)c1nnc(NC(=O)c2ccc(N3CCCCC3)c([N+](=O)[O-])c2)s1 | 44 µM |
| CCN(CC)CCCNC(=O)c1c(O)c2ccccc2n(Cc2ccccc2)c1=O | 13.8 µM |
| O=C1COc2ccc(C(=O)CCl)cc2N1 | 44.4 µM |
| Cc1cccc(Cl)c1NC(=S)NN | 55.1 µM |
| O=c1c2c3n(c(=S)nc2[nH]n1-c1ccccc1)CCCCC3 | 13.3 µM |
| COc1ccc(C(=O)/C=C/c2ccc(O)cc2)c(O)c1CC=C(C)C | 75.1 µM |
| CC/C(=N\NC(=S)NC(C)C)c1ccc(OC)c(OC)c1 | 15.5 µM |
| O=C(COC(=O)c1ccc([N+](=O)[O-])s1)NCc1ccccc1 | 39.4 µM |
| Cc1cccc(-n2nc([N+](=O)[O-])c(=NC3CCN(Cc4ccccc4)CC3)n2O)c1 | 30.5 µM |
| CC(=O)Nc1ccc(SCC(=O)c2cc(C)n(C)c2C)cc1 | 53.6 µM |
| CC[C@@](C)(NS(=O)(=O)OCC(Cl)(Cl)Cl)c1ccccc1 | 54.8 µM |
| O=C(CSC1CS(=O)(=O)c2cc([N+](=O)[O-])ccc21)NNC(=O)c1ccccc1 (stereo unspecified) | 13.3 µM |
| COc1ccccc1N1CCN(CC(=O)Nc2cc(F)ccc2C)CC1 | 91 µM |
| CC(=O)Nc1ccc(S(=O)(=O)Nc2cccc3cccnc23)cc1 | 43.3 µM |
| COc1ccc(NC(=O)c2cc(C)nc3ccccc23)c(OC)c1 | 12.9 µM |
